The values that follow come from publication PMC4941420, “A Rational Approach for the Identification of Non-Hydroxamate HDAC6-Selective Inhibitors” (Scientific Reports, 2016).

One data set addresses T1, HDAC8 (Homo sapiens, UniProt Q9BY41).
T1 construct: purchased Sigma Aldrich or Reaction Biology Corporation
T1 sequence (Q9BY41 1-377): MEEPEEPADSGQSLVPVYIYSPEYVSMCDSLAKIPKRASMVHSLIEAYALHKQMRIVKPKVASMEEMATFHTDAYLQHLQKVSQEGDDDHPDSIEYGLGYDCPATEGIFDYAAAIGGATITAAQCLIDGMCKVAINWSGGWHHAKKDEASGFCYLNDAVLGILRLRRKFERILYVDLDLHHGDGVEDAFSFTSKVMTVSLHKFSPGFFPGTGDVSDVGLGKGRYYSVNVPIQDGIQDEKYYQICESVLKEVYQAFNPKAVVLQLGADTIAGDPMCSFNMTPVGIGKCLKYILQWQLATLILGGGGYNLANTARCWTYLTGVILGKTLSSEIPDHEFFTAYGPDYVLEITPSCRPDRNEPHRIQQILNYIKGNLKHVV
In words: In vitro enzymatic assay HDAC8 (Fluor de Lys). The data set is classed as biochemical. The conditions noted are these: average of at least 2 independent experiments in duplicates ± SEM.

Data set [1] has as its system class I HDACs (HeLa nuclear extracts). In words: HDAC activity of HeLa nuclear extracts (Fluor de Lys). The conditions noted are these: 100 μM, average of at least 3 independent experiments in duplicates (Table 1). It is filed as biochemical, human.
A short description of data set [2]: Solubility remarks during testing. The following applies: concentrations higher than 500 μM cannot be tested. The data set is classed as physicochemical.
The nature of data set [3]: Cytotoxicity XTT, HEK 293. The data set is classed as cell-based. The conditions noted are these: human, HEK 293 cells (ATCC CRL-1573), mean ± SD of 3 independent experiments in triplicate, read-out: cytotoxic IC50 HEK 293. The method, then:
(§1) HeLa and HEK 293 cells (ATCC CRL-1573) were cultured as described above and seeded into 96-well plates at 400 cells/well. Test and standard compounds were added to plate wells in triplicate (0.05% DMSO in culture medium) in a range of six concentrations. Following 72 h of incubation, […] of an activated XTT solution was added to the cells (1 mg/mL). The absorbance was measured at 450 nm after 2 h incubation at 37 °C. The growth of the compound-treated cells was compared with the growth of vehicle-treated control cells. IC50 values were calculated with GraphPad Prism 6.0.
(In general: Tetrazolium dyes change colour on reduction, which living cells bring about.)

The test system of data set [4] is histone H4 acetylation in HeLa cells. In words: Acetyl histone H4 Western blotting in HeLa cells. The data set is classed as cell-based, human. The conditions noted are these: 500 μM, 6 h. The method, then:
The acetyl-α-tubulin sandwich ELISA Kit (Pathscan® #7204, Cell Signalling) was used to determine tubulin acetylation levels, and Western blotting was used to evaluate histone H4 acetylation, both methods applied to lysates of treated and non-treated HeLa cells (ATCC CCL-2). Cells were cultured in DMEM medium, 4.5 g/L glucose, L-glutamine (Invitrogen), supplemented with 10% heat-inactivated fetal bovine serum (FBS, Biowest), 100 units/mL penicillin, and 100 μg/mL streptomycin, and 1% non-essential amino acids (Invitrogen) at 37 °C with 5% CO2. Prior to ELISA experiments, cells were seeded into 6-well plates at 150,000 cells/well and transfected with the HDAC6-GFP construct (pEGFP.N1-HDAC6, Addgene)[58], using the Lipofectamine 2000 reagent (Invitrogen). Cells were then treated with test compounds, standards or vehicle (0.5% DMSO in culture medium) for 48 h. After the incubation time, cells were washed with cold DPBS (Invitrogen) and lysates were obtained by recovering cells in cold lysis buffer provided in the ELISA kit, supplemented with a protease inhibitor tablet (SigmaFast, Sigma Aldrich). Briefly, cells were harvested in DPBS and centrifuged. The cell pellet was suspended in 100 μL lysis buffer, vortexed, and kept on melting ice for 30 min. […] Protein concentration was determined by fluorimetry using the Qubit protein assay kit (Invitrogen). […]

A further data set is described as follows: Cytotoxicity XTT, HeLa. It is filed as cell-based, human. The following applies: human, HeLa cells, mean ± SD of 3 independent experiments in triplicate, read-out: cytotoxic IC50 HeLa. The method, then: as §1
Data set [5] relates to α-tubulin acetylation in HeLa cells. The experiment in a line: Acetyl-α-tubulin sandwich ELISA in HeLa cells. The conditions noted are these: 48 h. It is filed as cell-based, human. The method, then: The acetyl-α-tubulin sandwich ELISA Kit (Pathscan® #7204, Cell Signalling) was used to determine tubulin acetylation levels, and Western blotting was used to evaluate histone H4 acetylation, both methods applied to lysates of treated and non-treated HeLa cells (ATCC CCL-2). Cells were cultured in DMEM medium, 4.5 g/L glucose, L-glutamine (Invitrogen), supplemented with 10% heat-inactivated fetal bovine serum (FBS, Biowest), 100 units/mL penicillin, and 100 μg/mL streptomycin, and 1% non-essential amino acids (Invitrogen) at 37 °C with 5% CO2. Prior to ELISA experiments, cells were seeded into 6-well plates at 150,000 cells/well and transfected with the HDAC6-GFP construct (pEGFP.N1-HDAC6, Addgene)[58], using the Lipofectamine 2000 reagent (Invitrogen). Cells were then treated with test compounds, standards or vehicle (0.5% DMSO in culture medium) for 48 h. After the incubation time, cells were washed with cold DPBS (Invitrogen) and lysates were obtained by recovering cells in cold lysis buffer provided in the ELISA kit, supplemented with a protease inhibitor tablet (SigmaFast, Sigma Aldrich). Briefly, cells were harvested in DPBS and centrifuged. The cell pellet was suspended in 100 μL lysis buffer, vortexed, and kept on melting ice for 30 min. Lysates were then obtained by recovering the supernatant after a centrifugation step of 10 min at 11,000 g, 4 °C. Protein concentration was determined by fluorimetry using the Qubit protein assay kit (Invitrogen). Cell lysates were tested at 1 mg/mL following the instructions provided by the ELISA kit manufacturer. For the Western blotting, cells were seeded into 100 mm Petri dishes and treated for 6 h. After the incubation time, cells were washed with cold DPBS (Invitrogen) supplemented with a protease inhibitor tablet (Sigma Fast, Sigma Aldrich), and lysates were obtained by recovering cells in 100 μL cold lysis buffer (10 mM Hepes pH 7.9, 1.5 mM MgCl2, 10 mM KCl, 0.5 mM DTT, 1.5 mM PMSF, 0.2M HCl) the same way as described above. […]

As a reminder, the IC50 is the concentration that inhibits the measured activity by half. `NNC(=O)c1ccc(COc2ccccc2Cl)cc1` [AK-14] gave an IC50 at HDAC8 greater than 300 µM. For the same compound, the “HeLa % of inhibition at 100 μM” value in data set [1] amounted to 2.7 ± 1.3%. In addition, the “solubility remark in HeLa cell assay” value in data set [2] was “solubility issues”. Besides, the IC50 at 72 h stood at 34.5 ± 4.8 µM in data set [3] and 299 ± 56.1 µM in “Cytotoxicity XTT, HeLa”. The “acetylation profile of histone H4” value in data set [4] is “did not change”. Also, the acetylated tubulin levels entry in data set [5] (250 μM) is on record as “less remarkable effect”; in data set [5] (500 μM) it was “significantly increase”.
